# Laboratory results taken from patent publication US20230364074A1, “Compounds and Compositions for Disrupting Programmed Ribosomal Frameshifting” (YALE UNIVERSITY, priority 2020, published 2023).
# Where two headings read alike, the source gives them in different places.
# Legend:
# [1] = tested on: −1 PRF in SARS-CoV-2; conditions: prior art statement; cited from earlier work
# [2] = tested on: SARS-CoV-2 FSE (−1 PRF); test: cells; format: cell-based
# [3] = tested on: HEK293T cells; test: Cell viability in the high-throughput screen (cell nuclei numbers)
# Experimental: HEK293T cells were plated in 384 well plates at the density of 5,000 cells/well. Cells were treated by 10 μM candidate compounds 30 min before transfection of 15 ng mCherry-FSE-GFP(−1) plasmid DNA in each well. 24 hours after transfection, cell nuclei were stained with Hoechst dye. Cell nuclei, mCherry, and GFP signals were imaged using an automated fluorescent microscope with a 10x objective, and the acquired images were quantified using the CellProfiler image analysis package. Cell nuclei numbers were quantified as the metric for cell viability. Mean GFP and RFP intensity values were measured in all transfected cells, and GFP/mCherry mean intensity ratios were quantified as the metric for PRF efficiency. The mCherry-GFP fusion plasmid and the mCherry-FSE-GFP(0) plasmid were used as positive and negative controls for elevated and reduced GFP/mCherry ratios, respectively.
# [4] = tested on: HCoV-OC43; test: Viral plaque assay, HCoV-OC43 in MA104 cells; format: cell-based; conditions: MA104 cells (FIGS. 6G-6H)
# Experimental: Plaque formation assays for SARS-CoV-2, HCoV-229E, and HCoV-OC43 were performed in Vero E6, HuH-7.5, and MA104 cells (ATCC), respectively. Briefly, cells were seeded at 2-4×10^5 cells/well in 12-well plates. The following day, cells were incubated with viral stock (multiplicity of infection [MOI]=0.05) for 1 h and washed twice with PBS. Merafloxacin diluted in DMSO was added to the media, mixed briefly, and incubated at 37° C. After 2 d, media were collected, centrifuged, and supernatants were stored at −80° C. To quantify viral titers, the collected media were first serially diluted 10-fold with fresh media. Two hundred microliters of each dilution were added to near-confluent cells in six-well plates and incubated at 37° C. for 1 h with gentle rocking. Subsequently, overlay media (DMEM, 2% FBS, 0.6% Avicel RC-581) was added to each well. After 3 d, cells were fixed with 10% formaldehyde for 30 min, stained with crystal violet for 30 min, and rinsed with deionized water to visualize plaques.
# [5] = tested on: −1 PRF of human PEG10 mRNA; format: cell-based
# [6] = tested on: two-stem pseudoknot FSE of IBV; format: cell-based, avian coronavirus infectious bronchitis virus (IBV); conditions: 20 μM merafloxacin (FIG. 2E)
# [7] = tested on: −1 PRF of SARS-CoV-2; test: microbe, parasite or virus in culture; format: cell-based; conditions: for validated effect on −1 PRF in dual luciferase-based PRF reporter assay: repurchased screen candidates
# [8] = tested on: −1 PRF of SARS-CoV; test: microbe, parasite or virus in culture; format: cell-based; conditions: Severe acute respiratory syndrome coronavirus, read-out: IC50 of −1 PRF inhibition, SARS-CoV
# [9] = tested on: −1 PRF of HIV-1; format: cell-based, human immunodeficiency virus 1 (HIV-1)
# [10] = tested on: Vero E6 cells; conditions: Vero E6 cells (FIG. 6B)
# [11] = tested on: −1 PRF of hCoV-NL63; format: cell-based; conditions: 20 μM merafloxacin (FIG. 2E)
# [12] = tested on: −1 PRF of hCoV-229E; format: cell-based; conditions: 20 μM merafloxacin (FIG. 2E)
# [13] = tested on: −1 PRF of HCoV-HKU1; test: cells; format: cell-based; conditions: read-out: IC50 of −1 PRF inhibition, HCoV-HKU1
# [14] = tested on: SARS-CoV-2; test: Viral plaque assay, SARS-CoV-2 in Vero E6 cells; format: cell-based; conditions: Severe acute respiratory syndrome coronavirus 2, Vero C1008
# [15] = tested on: HIV-1 (NL4-3-dNef-GFP); test: HIV-1 antiviral assay in Jurkat T cells; format: cell-based; conditions: Jurkat T cells (FIG. 7)
# [16] = tested on: −1 PRF of EAV; format: cell-based, equine arteritis virus (EAV)
# [17] = tested on: HEK293T cells; conditions: HEK293T (FIG. 2N)
# [18] = tested on: −1 PRF of WNV; format: cell-based, west nile virus (WNV)
# [19] = tested on: HEK293T cells; format: cell-based
# [20] = tested on: SARS-CoV-2 nsp12 / nsp8; format: cell-based
# [21] = tested on: −1 PRF of HCoV-OC43; test: microbe, parasite or virus in culture; format: cell-based; conditions: Betacoronavirus 1, OC43, read-out: IC50 of −1 PRF inhibition, HCoV-OC43
# [22] = Severe acute respiratory syndrome coronavirus 2, HEK-293T, 24 h; read-out: PERCENT EFFECT 2 (Decreased GFP/Red ratio)
# [23] = Severe acute respiratory syndrome coronavirus 2, HEK-293T, 24 h; read-out: PERCENT EFFECT (Increased GFP/Red Ratio)
# [24] = 10 μM compound, cell nuclei numbers
compound,measurement,setting,value
CCOC(=O)c1ccccc1NC(=O)N1CCCN(Cc2csc(C)n2)CC1 [MTDB],inhibition of −1 PRF in SARS-CoV-2 reporter assays,[1],inhibit −1 PRF
"O=C(Nc1ccc(Cl)cc1)Nc1ccc(Cl)c(C(F)(F)F)c1 [halocarban, 3-(4-chlorophenyl)-1-[4-chloro-3-(trifluoromethyl)phenyl]urea]",inhibition at 10 µM,[2]; [22],-48.8%
same,activation at 10 µM,[2]; [23],23.9%
same,PERCENT VIABILITY,[3]; [24],54.7%
CC(=O)[C@]1(O)Cc2c(O)c3c(c(O)c2[C@@H](O[C@H]2C[C@H](N)[C@H](O)[C@H](C)O2)C1)C(=O)c1ccccc1C3=O [idarubicin],inhibition at 10 µM,[2]; [22],76.8%
same,activation at 10 µM,[2]; [23],-40.6%
same,PERCENT VIABILITY,[3]; [24],10.75%
"CCNCC1CCN(c2c(F)cc3c(=O)c(C(=O)O)cn(CC)c3c2F)C1 (stereo not drawn) [merafloxacin, 1-ethyl-7-[3-(ethylaminomethyl)pyrrolidin-1-yl]-6,8-difluoro-4-oxoquinoline-3-carboxylic acid]",antiviral activity against HCoV-OC43,[4],showed antiviral activity
same,inhibition of −1 PRF of human PEG10 mRNA,[5],did not inhibit
same,inhibition at 10 µM,[2]; [22],25%
same,activation at 10 µM,[2]; [23],-13%
same,sensitivity of IBV FSE,[6],largely insensitive
same,PERCENT VIABILITY,[3]; [24],168.57%
same,IC50,"[7]; Severe acute respiratory syndrome coronavirus 2, dose-dependent, FIG. 2C, read-out: IC50 of −1 PRF inhibition, SARS-CoV-2",~20 µM
same,−1 PRF of in vitro-transcribed SARS-CoV-2 reporter mRNAs,[7]; in vitro transcribed RNAs (FIG. 2O),inhibited
same,validated effect on −1 PRF in dual luciferase-based PRF reporter assay,[7],inhibitor
same,IC50,[8],~20 µM
same,inhibition of −1 PRF of HIV-1,[9],did not inhibit
same,cytotoxicity,[10],without causing substantial cytotoxicity
same,activity against −1 PRF of hCoV-NL63,[11],much weaker activity
same,activity against −1 PRF of hCoV-229E,[12],much weaker activity
same,IC50,[13],30 µM
same,EC50,[14]; read-out: EC50 of SARS-CoV-2 replication,2.6 µM
same,EC90,[14]; read-out: EC90 of SARS-CoV-2 replication,12 µM
same,antiviral activity against an HIV-1 reporter virus,[15],no antiviral activity
same,inhibition of −1 PRF of EAV,[16],did not inhibit
same,effect on cell viability,[17],did not affect
same,inhibition of −1 PRF of WNV,[18],did not inhibit
same,effect on upstream FLuc translation,[19]; 20 μM merafloxacin (FIG. 2F),did not affect
same,effect on ribosome association of the reporter mRNA,[19]; 80 μM merafloxacin (FIG. 2H),did not affect
same,effect on global translation (polysome profiles),[19]; 80 μM merafloxacin for 24 hours (FIG. 2G),did not affect
same,effect on reporter mRNA abundance,[19]; FIG. 2M,did not affect
same,relative abundance between nsp12 and nsp8,[20],substantially reduced
same,IC50,[21],39 µM
"O=[N+]([O-])c1cc(Cl)cc(-c2cc(Cl)cc([N+](=O)[O-])c2O)c1O [niclofolan, 4-chloro-2-(5-chloro-2-hydroxy-3-nitrophenyl)-6-nitrophenol]",inhibition at 10 µM,[2]; [22],-36.6%
same,activation at 10 µM,[2]; [23],17.2%
same,PERCENT VIABILITY,[3]; [24],68.0%
"NCCCNc1ccc2c3c(nn2CCNCCO)-c2c(O)ccc(O)c2C(=O)c13 [piroxantrone, 5-(AMINO-PR-AMINO)-DI-HO-2-(2-(HO-ET-AMINO)-ET)-2H-DIBENZO(CD,G)INDAZOL-ONE]",inhibition at 10 µM,[2]; [22],88.7%
same,activation at 10 µM,[2]; [23],-43.5%
same,PERCENT VIABILITY,[3]; [24],91.45%
"COc1ccc(C[C@H](N)C(=O)NC2[C@@H](O)[C@H](n3cnc4c(N(C)C)ncnc43)O[C@@H]2CO)cc1 (stereo partly drawn) [puromycin, (2S)-2-amino-N-[(2S,4R,5R)-5-(6-dimethylaminopurin-9-yl)-4-hydroxy-2-(hydroxymethyl)oxolan-3-yl]-3-(4-methoxyphenyl)propanamide]",activation at 10 µM,[2]; [23],18.9%
same,PERCENT VIABILITY,[3]; [24],26.1%
same,PERCENT VIABILITY,"[3]; 10 μM compound, cell nuclei numbers, listed as Puromycin",49.7%
"Cc1cc2nc3c(=O)[nH]c(=O)nc-3n(CC(O)C(O)C(O)CO)c2cc1C (stereo not drawn) [riboflavin, 7,8-dimethyl-10-(2,3,4,5-tetrahydroxypentyl)benzo[g]pteridine-2,4-dione]",inhibition at 10 µM,[2]; [22],-40%
same,activation at 10 µM,[2]; [23],19.6%
same,PERCENT VIABILITY,[3]; [24],187.1%
"O=C(Nc1cccc(C(F)(F)F)c1)c1ccccc1O [salfluverine, 2-hydroxy-N-[3-(trifluoromethyl)phenyl]benzamide]",inhibition at 10 µM,[2]; [22],-40.2%
same,activation at 10 µM,[2]; [23],18.9%
same,PERCENT VIABILITY,[3]; [24],133.5%
Clc1ccc(C(Cn2ccnc2)OCc2ccsc2Cl)c(Cl)c1 (stereo not drawn) [tioconazole],inhibition at 10 µM,"[2]; Severe acute respiratory syndrome coronavirus 2, HEK-293T, 24 h, read-out: PERCENT EFFECT 2 (Decreased GFP/Red ratio)",-51.1%
same,activation at 10 µM,"[2]; Severe acute respiratory syndrome coronavirus 2, HEK-293T, 24 h, read-out: PERCENT EFFECT (Increased GFP/Red Ratio)",26.7%
same,PERCENT VIABILITY,[3]; human,99.7%
N[C@@H]1[C@H]2CN(c3nc4c(cc3F)c(=O)c(C(=O)O)cn4-c3ccc(F)cc3F)C[C@@H]12 [trovafloxacin],"activity on SARS-CoV-2 PRF efficiency, compared with merafloxacin",[7]; final concentration of 20 μM (FIGS. 3A and 3B),less active
O=C(CCCCCCC(=O)Nc1ccccc1)NO [vorinostat],inhibition at 10 µM,[2]; [22],-28.8%
same,activation at 10 µM,[2]; [23],15.2%
same,PERCENT VIABILITY,[3]; [24],20.6%
GRAMICIDIN [GRAMICIDIN (gramicidin A shown)],PERCENT EFFECT 2 (Decreased GFP/Red ratio),[2],−29.0%
same,PERCENT EFFECT (Increased GFP/Red Ratio),[2],15.0%
same,PERCENT EFFECT 2 (Decreased GFP/Red ratio),[2]; listed as gramicidin,−38.6%
same,PERCENT EFFECT (Increased GFP/Red Ratio),[2]; listed as gramicidin,18.9%
same,PERCENT VIABILITY,[3]; [24],3.3%
same,PERCENT VIABILITY,"[3]; 10 μM compound, cell nuclei numbers, listed as gramicidin",10.1%
IVERMECTIN,PERCENT EFFECT 2 (Decreased GFP/Red ratio),[2],−36.2%
same,PERCENT EFFECT (Increased GFP/Red Ratio),[2],15.8%
same,PERCENT VIABILITY,[3]; [24],223.0%
same,validated effect on −1 PRF in dual luciferase-based PRF reporter assay,[7],enhancer
